This note sets out measurements from ChEMBL document CHEMBL1201862, “PubChem BioAssay data set” (2004).

Where “and” joins values, the source holds several entries; their conditions need not be identical. Equal values may be shown once.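 Tested at 5 concentrations; 48 h exposure; 96-well plates; endpoints linearly interpolated, else capped at highest concentration. GI50 marks 50% less growth.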 Calls of active or inactive are those of the source. Cut-off read from the data, not from the text of the source: active = GI50 up to about 1.1 µM and inactive = higher.

Some test systems named below: SN12C; ACHN; SF-539; U-251; KM12; SW-620; CAKI-1; SF-295; MOLT-4; LOX IMVI; IGROV-1; OVCAR-8; NCI-H522; UACC-257; HCT-15; SNB-19; RPMI-8226; SK-MEL-5; HCT-116; NCI-H226.
Common to all, as to assay: NCI tumour cell line growth inhibition, 48 h

As for `CCOC(=O)C1C(=O)CC(=O)C2CCCCC21` (stereo not drawn), the GI50 in the assay on SN12C, in the assay on ACHN, in the assay on SF-539, in the assay with U-251, in the assay on KM12 and in the assay on SW-620 was > 100 µM (inactive) each time. The GI50 in the assay on CAKI-1, in the assay with SF-295, in the assay on MOLT-4, in the assay on LOX IMVI, with IGROV-1 and in the assay on OVCAR-8 was > 100 µM (inactive) throughout. Moreover, the GI50 in the assay with NCI-H522 was > 100 µM (inactive); with UACC-257, > 100 µM (inactive); in the assay on HCT-15, above 100 µM; in the assay on SNB-19, > 100 µM (inactive); with RPMI-8226, > 100 µM (inactive); in the assay with SK-MEL-5 it was > 100 µM (inactive). The GI50 with HCT-116 was > 100 µM (inactive).

`O=C(O)c1cnc(-n2[nH]c3c(c2=O)CCCC3)[nH]c1=O`: the GI50 with SN12C, in the assay on ACHN, in the assay with SF-539, with NCI-H226, with U-251 and in the assay with KM12 was > 100 µM (inactive) each time. Also, the GI50 in the assay on SW-620, with CAKI-1, in the assay with SF-295, in the assay with MOLT-4, in the assay with IGROV-1 and with OVCAR-8 was > 100 µM (inactive) each time. In addition, the GI50 in the assay with NCI-H522 is > 100 µM (inactive); in the assay on UACC-257 it was > 100 µM (inactive); in the assay on HCT-15, above 100 µM; in the assay with SNB-19, > 100 µM (inactive); with RPMI-8226 it was > 100 µM (inactive); in the assay with SK-MEL-5, > 100 µM (inactive). In addition, in the assay with HCT-116, the GI50 is > 100 µM (inactive).

Regarding `COC(=O)C1c2cc3c(cc2C(OC2OC(C)C(OC)C(C)(OC)C2OC)CC1(C)O)C(=O)c1c(O)cc2c(c1C3=O)OC1OC2(C)C(O)C([N+](C)(C)[O-])C1O` (stereo not drawn), the GI50 in the assay with SN12C is 0.102 µM (active); in the assay with ACHN, 0.309 µM (active); with SF-539 it was 0.0883 µM (active); in the assay on U-251, 0.0386 µM (active); with KM12, 0.154 µM (active); with SW-620, 0.0845 µM (active). Moreover, the GI50 in the assay on CAKI-1 was 0.938 µM (active); with SF-295, 0.269 µM (active); with MOLT-4 it was 0.416 µM (active); in the assay on LOX IMVI, 0.0354 µM (active); in the assay on IGROV-1 it was 0.0791 µM (active); with OVCAR-8 it was 0.0927 µM (active). For the same compound, the GI50 in the assay with NCI-H522 is 0.055 µM (active); with UACC-257, 0.182 µM (active); in the assay on HCT-15, 2.78 µM; with SNB-19, 0.126 µM (active); in the assay on RPMI-8226 it was 0.122 µM (active); in the assay with SK-MEL-5, 0.0776 µM (active). In the assay on HCT-116, the GI50 is 0.0197 µM (active).

On to `O=[N+]([O-])c1cc(/C=N\NS(=O)(=O)c2ccc(Cl)cc2)c(O)c([N+](=O)[O-])c1`, for which the GI50 in the assay with SN12C was 25.6 µM (inactive); in the assay with ACHN, 49.8 µM (inactive); in the assay on SF-539 it was 23.3 µM (inactive); with U-251, 24 µM (inactive); in the assay with KM12 it was 27.5 µM (inactive); with SW-620, 34.6 µM (inactive). The GI50 is 30.5 µM (inactive) in the assay with CAKI-1; 32.9 µM (inactive) in the assay on SF-295; 29.2 µM (inactive) in the assay on MOLT-4; 37.8 µM (inactive) in the assay on LOX IMVI; 74.8 µM (inactive) in the assay on IGROV-1; 23 µM (inactive) with OVCAR-8. In addition, the GI50 with NCI-H522 was 24.5 µM (inactive); in the assay with UACC-257, 66.5 µM (inactive); in the assay on HCT-15, 21.4 µM; in the assay on SNB-19 it was 20.9 µM (inactive); with RPMI-8226, 19 µM (inactive); with SK-MEL-5, 27.8 µM (inactive). The GI50 in the assay on HCT-116 was 30.1 µM (inactive).

As for `N/C(=N\O)N/N=C/c1cccs1`, the GI50 is 59.8 µM (inactive) in the assay with SN12C; 42.3 µM (inactive) in the assay with ACHN; > 100 µM (inactive) with SF-539; 57.1 µM (inactive) in the assay with NCI-H226; > 100 µM (inactive) with U-251; 49.1 µM (inactive) with KM12. In addition, the GI50 was > 100 µM (inactive) in the assay on SW-620; 34.4 µM (inactive) in the assay on CAKI-1; > 100 µM (inactive) in the assay on SF-295; 35.4 µM (inactive) with IGROV-1; 71.9 µM (inactive) with OVCAR-8; 25.1 µM (inactive) in the assay on NCI-H522. Also, the GI50 in the assay on UACC-257 was > 100 µM (inactive); in the assay with HCT-15, 79.1 µM; with SNB-19 it was > 100 µM (inactive); in the assay on HCT-116, > 100 µM (inactive).

As to `COc1ccccc1/C=C(/C)[N+](=O)[O-]`, the GI50 with SN12C was 2.24 µM (inactive) and 1.98 µM (inactive); in the assay with ACHN, 2.17 µM (inactive) and 2.44 µM (inactive); with SF-539, 1.77 µM (inactive) and 2.28 µM (inactive); with NCI-H226 it was 2.02 µM (inactive) and 2.34 µM (inactive); in the assay on U-251, 1.68 µM (inactive) and 1.79 µM (inactive); with KM12, 2.96 µM (inactive) and 1.74 µM (inactive). In addition, the GI50 with SW-620 was 2.43 µM (inactive) and 2.02 µM (inactive); in the assay with MOLT-4 it was 269 nM (active) and 255 nM (active); in the assay with IGROV-1, 2.17 µM (inactive) and 1.6 µM (inactive); in the assay on OVCAR-8, 1.79 µM (inactive) and 2.12 µM (inactive); in the assay on NCI-H522, 1.39 µM (inactive) and 1.19 µM (inactive); in the assay on UACC-257 it was 1.74 µM (inactive) and 1.77 µM (inactive). For the same compound, the GI50 in the assay on HCT-15 is 1.96 µM and 2.01 µM; in the assay with SNB-19 it was 4.26 µM (inactive) and 2.33 µM (inactive); in the assay with SK-MEL-5, 2.07 µM (inactive) and 1.85 µM (inactive).

Regarding `O=c1c2cc(-c3ccccc3)cnc2sn1-c1ccc(Oc2ccccc2)cc1`, the GI50 with SN12C is 31.3 µM (inactive); in the assay with ACHN, 66.8 µM (inactive); with SF-539, 50.4 µM (inactive); in the assay on NCI-H226 it was 87.5 µM (inactive); with U-251 it was 23.6 µM (inactive); in the assay with KM12, 48.5 µM (inactive). For the same compound, the GI50 in the assay with SW-620 is 37.8 µM (inactive); with CAKI-1, 61.9 µM (inactive); with SF-295, 31 µM (inactive); with MOLT-4, 49.2 µM (inactive); in the assay with IGROV-1 it was 32.6 µM (inactive); with OVCAR-8, 26.9 µM (inactive). For the same compound, the GI50 with NCI-H522 was 34.4 µM (inactive); with UACC-257, 67 µM (inactive); in the assay on HCT-15, 56.5 µM; in the assay on SNB-19, 19.2 µM (inactive); in the assay on RPMI-8226 it was 53.1 µM (inactive); in the assay with HCT-116, 51.9 µM (inactive).

Turning to `CCn1c2c(c3ccccc31)C(c1ccccc1)CC1C(=O)N(c3ccccc3)C(=O)C21` (stereo not drawn), the GI50 in the assay on SN12C is 67.1 µM (inactive); in the assay on ACHN, 57.5 µM (inactive); with SF-539, 35.4 µM (inactive); in the assay on NCI-H226, 31.8 µM (inactive); with U-251 it was > 10 µM (inactive); with KM12, > 100 µM (inactive). In addition, the GI50 with SW-620 was > 100 µM (inactive); in the assay with CAKI-1, 35.2 µM (inactive); in the assay on SF-295, > 100 µM (inactive); in the assay with MOLT-4, 91.2 µM (inactive); in the assay on LOX IMVI it was > 100 µM (inactive); in the assay with IGROV-1, 33 µM (inactive). For the same compound, the GI50 in the assay on OVCAR-8 was 9.59 µM (inactive); in the assay on NCI-H522 it was 72.8 µM (inactive); in the assay with UACC-257 it was > 100 µM (inactive); with HCT-15, above 100 µM; in the assay on SNB-19, 50.5 µM (inactive); in the assay with SK-MEL-5 it was 31.7 µM (inactive). Further, the GI50 in the assay with HCT-116 was 55 µM (inactive).

In the case of `C1=C2C3=[N+](CCCC3)CC2Cc2ccsc21` (stereo not drawn), the GI50 was > 100 µM (inactive) in the assay with SN12C; > 100 µM (inactive) in the assay with ACHN; > 100 µM (inactive) with NCI-H226; 28.7 µM (inactive) in the assay on U-251; 42.4 µM (inactive) in the assay on KM12; > 100 µM (inactive) in the assay on SW-620. Besides, the GI50 in the assay with CAKI-1 is > 100 µM (inactive); with SF-295, 55.3 µM (inactive); in the assay with MOLT-4 it was > 100 µM (inactive); in the assay on LOX IMVI, > 100 µM (inactive); with IGROV-1, > 100 µM (inactive); with OVCAR-8, 82.6 µM (inactive). For the same compound, the GI50 in the assay on NCI-H522 is 62.8 µM (inactive); in the assay with UACC-257, 33.9 µM (inactive); in the assay on HCT-15, above 100 µM; with SNB-19, 56.2 µM (inactive); with SK-MEL-5, 66.5 µM (inactive); in the assay with HCT-116, > 100 µM (inactive).

Take `CC(C)(C)c1cc(CCCCCCCC2(CCCCCCCc3cc(C(C)(C)C)cc(C(C)(C)C)c3)OC(COCCOCCCCCC#N)C(COCCOCCCCCC#N)O2)cc(C(C)(C)C)c1` (stereo not drawn): the GI50 with SN12C, with ACHN, with NCI-H226, in the assay on U-251, in the assay with KM12 and in the assay with SW-620 was > 100 µM (inactive) throughout. The GI50 in the assay with CAKI-1, in the assay on SF-295, in the assay on LOX IMVI, in the assay with IGROV-1, in the assay with OVCAR-8 and with NCI-H522 was > 100 µM (inactive) throughout. For the same compound, the GI50 was > 100 µM (inactive) with UACC-257; above 100 µM in the assay on HCT-15; > 100 µM (inactive) in the assay on SNB-19; > 100 µM (inactive) in the assay on SK-MEL-5; > 100 µM (inactive) in the assay with HCT-116.

Take `COc1cc(Cn2c3ccccc3c3cc(C)c4c(c32)C=CC(C)(CCC=C(C)C)O4)cc2c1[nH]c1ccccc12` (stereo not drawn) [CHRESTFOLINE C]: the GI50 in the assay with SN12C, with ACHN, in the assay with SF-539, in the assay on U-251, in the assay on KM12 and in the assay on SW-620 was > 100 µM (inactive) each time. Further, the GI50 in the assay on CAKI-1, with SF-295, in the assay on MOLT-4, with LOX IMVI, in the assay on IGROV-1 and in the assay with OVCAR-8 was > 100 µM (inactive) throughout. For the same compound, the GI50 with NCI-H522 is > 100 µM (inactive); with UACC-257 it was > 100 µM (inactive); in the assay on HCT-15, above 100 µM; in the assay on SNB-19, > 100 µM (inactive); in the assay on RPMI-8226, > 100 µM (inactive); with SK-MEL-5, > 100 µM (inactive). The GI50 with HCT-116 is > 100 µM (inactive).
